The record followed here is US20030104975A1, “Cofactor-based screening method for nuclear receptor modulators and related modulators” (priority 2001, published 2003).

The target of one test is T1, PPARγ DE / p300Nt-GST (Homo sapiens, UniProt P37231).
T1 construct: made in house; host or cells: E. coli BL21 (DE3) for PPARgamma, pET15b; E. coli for the GST fusion, pGex4-T1
Description: GST pull-down assay, PPARγ DE with p300Nt-GST. In kind it is binding. The conditions noted are these: anti-histidine blot, rosiglitazone 10^-4 M, FMOC-L-Leu 10^-3 M, compared to DMSO. The source says: (§1) The beads were then washed and the samples separated on SDS-PAGE. Blots were developed with anti-histidine antibodies.
(§2) Production of proteins. The p300Nt-GST, SRC-1-GST and TIF2-GST fusion proteins were generated by cloning the N-terminal part of the cDNA coding for the p300 protein (amino acids 2 to 516), the region comprised between amino acids 568 and 780 of SRC-1 (SEQ ID NO: 03), and the domain between amino acids 618 and 826 of TIF2 (SEQ ID NO: 01), respectively, downstream of the glutathione-S-transferase (GST) protein in the pGex4-T1 vector (Pharmacia, Orsay, France). The fusion proteins were then expressed in E. coli and purified on a glutathione affinity matrix (Pharmacia). 6×-histidine-tagged human PPAR-gamma LBD (residues 203-477 of SEQ ID NO: 06) was overproduced in E. coli BL21 (DE3) using the pET15b as an expression plasmid (Novagen, Madison, Wis.) and purified by metal ion affinity chromatography on a Co^2+-loaded HiTrap Chelating column (Pharmacia Biotech, Peapack, N.J.) followed by gel filtration chromatography on a HiLoad Supcrdex 100 column (Pharmacia). The protein concentration was determined by the Bradford method (1976, Anal Biochem 72, 248-254).
(§3) Pull-down experiments. […] The beads were then washed 4 times with pull-down buffer and boiled in 4×-sample buffer. The samples were separated by 12% acrylamide SDS-PAGE and transferred to nitrocellulose membranes.

Test [1] has as its target T2, PPARγ DE/SRC-1-GST complexes (Homo sapiens, UniProt P37231).
T2 sequence (P37231 203-477 isoform P37231-2): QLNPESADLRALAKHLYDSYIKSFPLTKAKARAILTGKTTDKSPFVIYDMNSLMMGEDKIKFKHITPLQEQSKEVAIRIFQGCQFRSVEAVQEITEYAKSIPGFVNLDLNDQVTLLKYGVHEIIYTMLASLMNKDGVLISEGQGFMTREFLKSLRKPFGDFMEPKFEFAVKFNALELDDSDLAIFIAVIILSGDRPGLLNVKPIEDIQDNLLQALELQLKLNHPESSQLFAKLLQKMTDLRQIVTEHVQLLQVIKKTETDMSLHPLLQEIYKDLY
The note with it: GST pull-down, anti-histidine blot; rosiglitazone 10^-4 M, FMOC-L-Leu 10^-3 M; compared to DMSO.
Text: as §1, §2, §3

Another test concerns the target T3, PPARγ DE / TIF2-GST (Homo sapiens, UniProt P37231).
T3 construct: made in house; host or cells: E. coli BL21 (DE3) for PPARgamma, pET15b; E. coli for the GST fusion, pGex4-T1
T3 sequence (P37231 203-477 isoform P37231-2): T2 sequence (P37231 203-477 isoform P37231-2)
Description: GST pull-down assay, PPARγ DE with TIF2-GST. In kind it is binding. The note with it: anti-histidine blot, rosiglitazone 10^-4 M, FMOC-L-Leu 10^-3 M, compared to DMSO.
Text: as §1, §2, §3

The next test has as its target T4, BDGal4-hPPARγ DE / TIF2 (Homo sapiens, UniProt P37231).
T4 construct: expressed in transfected cells; host or cells: RK13 cells (ATCC)
T4 sequence (P37231 238-503 limits assumed): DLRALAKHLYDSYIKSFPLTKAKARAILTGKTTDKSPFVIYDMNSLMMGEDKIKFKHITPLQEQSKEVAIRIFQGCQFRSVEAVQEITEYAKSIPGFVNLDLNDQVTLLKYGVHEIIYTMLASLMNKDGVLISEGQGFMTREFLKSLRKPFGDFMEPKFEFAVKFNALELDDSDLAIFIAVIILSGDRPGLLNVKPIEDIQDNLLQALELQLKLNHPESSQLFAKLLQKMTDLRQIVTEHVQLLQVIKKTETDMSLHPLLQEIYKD
Description: Mammalian two-hybrid assay in RK13 cells, Gal4-hPPARγ DE with TIF2. The note with it: 24 h, FMOC-L-Leu 10^-5M, rosiglitazone 10^-7M. In kind it is cell-based. The protocol:
(§4) FIG. 2: Interactions between PPAR-gamma and cofactors in cultured mammalian cells. Mammalian two-hybrid interaction between PPAR-gamma and the various co-activators in RK13 cells co-transfected with an expression vector for BDGal4-hPPARγ DE, pGL3-(Gal4)5TKLuc reporter construct, pCMV-βGal, as a control of transfection efficiency, and different expression vectors for different cofactors. Cells were grown during 24 h in the presence or absence of the indicated compound. Luciferase activity has been normalized. […] Each point was performed in triplicate. Bars not sharing similar superscripts are statistically different from each other (P<0.05, Fisher's Post-hoc analysis of 2×2 ANOVA with ligands and constructs as factors).
(§5) RK-13 cells were obtained from ATCC (Rockville, Md.). Cells were maintained in Dulbecco's modified Eagle's minimal essential medium (DMEM) supplemented with 10% fetal calf serum (FCS), L-glutamine, and antibiotics. Transfection studies with luciferase (luc.) reporter constructs were carried out as described previously (Oberfield et al., 1999, Proc Natl. Acad Sci USA 96, 6102-6106). The pGL3-(Gal4)5TKLuc reporter constructs are described elsewhere (Gelman et al., 1999, J. Biol. Chem. 274, 7681-7688). […]

For another test, the target named is T5, BDGal4-hPPARγ DE / SRC-1 (Homo sapiens, UniProt P37231).
T5 construct: expressed in transfected cells; host or cells: RK13 cells (ATCC)
T5 sequence (Q15788 whole entry partner, one chain of several, the tested form may be a part): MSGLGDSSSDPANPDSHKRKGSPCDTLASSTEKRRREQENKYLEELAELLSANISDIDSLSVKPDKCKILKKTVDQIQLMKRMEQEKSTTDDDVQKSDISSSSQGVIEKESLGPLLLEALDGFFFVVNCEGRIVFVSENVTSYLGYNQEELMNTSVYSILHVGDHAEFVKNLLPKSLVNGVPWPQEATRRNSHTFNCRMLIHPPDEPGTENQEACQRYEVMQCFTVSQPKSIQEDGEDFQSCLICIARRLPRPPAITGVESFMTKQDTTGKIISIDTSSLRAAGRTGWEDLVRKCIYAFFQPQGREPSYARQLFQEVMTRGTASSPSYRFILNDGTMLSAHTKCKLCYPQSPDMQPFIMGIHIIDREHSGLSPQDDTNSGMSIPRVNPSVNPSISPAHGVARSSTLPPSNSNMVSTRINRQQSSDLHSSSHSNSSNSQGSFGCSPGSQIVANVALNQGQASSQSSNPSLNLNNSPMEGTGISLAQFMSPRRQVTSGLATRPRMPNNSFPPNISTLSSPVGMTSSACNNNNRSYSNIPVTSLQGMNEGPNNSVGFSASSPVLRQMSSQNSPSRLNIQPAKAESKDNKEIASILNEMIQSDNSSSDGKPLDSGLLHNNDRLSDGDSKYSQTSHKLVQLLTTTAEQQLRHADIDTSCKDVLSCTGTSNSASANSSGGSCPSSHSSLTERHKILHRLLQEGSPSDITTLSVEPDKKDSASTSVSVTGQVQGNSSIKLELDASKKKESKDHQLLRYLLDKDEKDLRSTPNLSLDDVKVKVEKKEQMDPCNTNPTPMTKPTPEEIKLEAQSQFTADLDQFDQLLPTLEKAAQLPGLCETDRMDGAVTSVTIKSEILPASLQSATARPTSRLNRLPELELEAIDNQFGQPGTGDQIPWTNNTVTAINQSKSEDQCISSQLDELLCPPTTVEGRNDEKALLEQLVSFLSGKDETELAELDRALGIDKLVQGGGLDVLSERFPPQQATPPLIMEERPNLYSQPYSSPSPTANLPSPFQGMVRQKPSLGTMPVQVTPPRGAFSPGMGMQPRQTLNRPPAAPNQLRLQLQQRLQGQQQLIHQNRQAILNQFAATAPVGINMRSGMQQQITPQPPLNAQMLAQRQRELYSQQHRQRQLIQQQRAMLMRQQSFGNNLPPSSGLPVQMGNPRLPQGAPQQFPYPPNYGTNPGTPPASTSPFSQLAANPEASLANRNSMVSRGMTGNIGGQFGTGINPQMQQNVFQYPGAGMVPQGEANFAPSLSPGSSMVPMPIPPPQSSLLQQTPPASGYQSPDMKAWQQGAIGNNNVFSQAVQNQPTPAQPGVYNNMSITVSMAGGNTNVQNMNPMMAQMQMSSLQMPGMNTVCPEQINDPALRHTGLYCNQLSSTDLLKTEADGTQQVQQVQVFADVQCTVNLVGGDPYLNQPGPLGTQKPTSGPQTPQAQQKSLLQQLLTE
Kind of test: Mammalian two-hybrid assay in RK13 cells, Gal4-hPPARγ DE with SRC-1. In kind it is cell-based. The conditions noted are these: 24 h, FMOC-L-Leu 10^-5M. As to the method:
as §4, §5

A further test has as its target T6, BDGal4-hPPARγ DE / p300 (Homo sapiens, UniProt P37231).
T6 construct: expressed in transfected cells; host or cells: RK13 cells (ATCC)
T6 sequence (P37231 238-503 limits assumed): T4 sequence (P37231 238-503 limits assumed)
Kind of test: Mammalian two-hybrid assay in RK13 cells, Gal4-hPPARγ DE with p300. The conditions noted are these: 24 h, FMOC-L-Leu 10^-5M. In kind it is cell-based. As to the method:
as §4, §5

The test system of a further test is 3T3-L1 cells. Description: 3T3-L1 adipocyte differentiation assay. In kind it is cell-based, murine. The note with it: FMOC-L-Leu 10^-5 M. As to the method: A: Expression of adipocyte markers during differentiation of 3T3-L1 cells treated with different PPAR-gamma agonists. Confluent 3T3-L1 cells were incubated with 2 μM insulin, 1 μM dexamethasone, and 0.25 mM isobuthyl methyl xanthine for two days. […] RNA was isolated from 3T3-L1 cells after different times of differentiation induction. Blots were hybridized with DNA probes that specifically bind to 36B4 (to control for RNA loading), lipoprotein lipase (LPL), or aP2.
Cells were stained with Oil Red O after 6 days of treatment.
3T3-L1 cells (ATCC, Rockville, Md.) were grown to confluence in medium A (Dulbecco's modified Eagle's Medium with 10% fetal calf serum, 100 units/ml penicillin, and 100 μg/ml streptomycin). Confluent cell were incubated in medium A containing 2 μM insulin, 1 μM dexamethasone, and 0.25 mM isobuthyl methyl xanthine for two days. Then, the cells were incubated in medium A in presence or absence of PPARγ agonist for 4 days, changing the medium every 2 days. Adipogenesis was evaluated by analysis of the expression of adipocyte-specific markers and by staining of lipids with Oil Red O (Chawla & Lazar, 1994, Proc. Natl. Acad. Sci. USA 91, 1786-1790).
RNA was isolated from 3T3-L1 cells by the acid guanidinium thiocyanate/phenol/chloroform method (Chomczynski & Sacchi, 1987, Anal. Biochem. 162, 156-159). Northern blot analysis of total cellular RNA was performed as described (Auwerx et al., 1989, Mol. Cell. Biol. 9, 2298-2302). Lipoprotein lipase (LPL), aP2 and 36B4 were used as probes (Lefebvre et al., 1997, Arterioscler.Thromb.Vasc.Biol. 17, 1756-1764; Laborda, 1991, Nucl. Acids Res. 19, 3998; Graves et al., 1992, Mol. Cell. Biol 12, 1202-1208).

[2] abbreviates: Northern blot, extent close to rosiglitazone 10^-7 M.

T1 sequence (Q09472 2-516 partner limits assumed, one chain of several): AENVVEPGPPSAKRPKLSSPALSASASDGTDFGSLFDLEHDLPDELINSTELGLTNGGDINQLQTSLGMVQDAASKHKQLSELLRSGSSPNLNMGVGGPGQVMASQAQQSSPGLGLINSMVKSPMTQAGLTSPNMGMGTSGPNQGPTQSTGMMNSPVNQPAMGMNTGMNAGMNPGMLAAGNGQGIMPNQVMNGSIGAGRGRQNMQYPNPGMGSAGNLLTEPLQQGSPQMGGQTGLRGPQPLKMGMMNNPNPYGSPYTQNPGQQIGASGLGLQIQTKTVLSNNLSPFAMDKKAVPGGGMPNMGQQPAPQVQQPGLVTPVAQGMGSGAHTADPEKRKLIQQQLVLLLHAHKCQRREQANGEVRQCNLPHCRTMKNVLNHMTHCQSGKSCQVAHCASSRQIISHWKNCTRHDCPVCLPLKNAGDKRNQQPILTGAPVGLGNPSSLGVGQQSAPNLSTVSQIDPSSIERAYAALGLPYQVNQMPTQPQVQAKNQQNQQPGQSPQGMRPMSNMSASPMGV

Consider `CC(C)C[C@H](NC(=O)OCC1c2ccccc2-c2ccccc21)C(=O)O` [FMOC-L-Leu, FMOC-L-leucine], for which the “interaction between the PPARγ DE and p300Nt-GST” value at PPARγ DE / p300Nt-GST was “increased the interaction”. Moreover, the “formation of PPARγ DE/SRC-1-GST complexes” value in test [1] is “induced the formation”. At PPARγ DE / TIF2-GST, the “interaction between TIF2 and the PPARγ DE” value was “not with FMOC-L-Leu”. The “transactivation (luciferase) in the presence of TIF2” value on BDGal4-hPPARγ DE / TIF2 is given as “no significant increase in transactivation”. Further, the “transactivation (luciferase) in the presence of SRC-1” value at BDGal4-hPPARγ DE / SRC-1 was “much more pronounced and significant induction”. On BDGal4-hPPARγ DE / p300, the “transactivation (luciferase) in the presence of p300” value is “no significant increase in transactivation”. Also, the “neutral lipid accumulation (Oil Red O staining)” value in the test on 3T3-L1 cells (6 day incubation, rosiglitazone 10^-7 M) is given as “capable of inducing neutral lipid accumulation”. Moreover, in the test on 3T3-L1 cells (setting [2]), the “LPL mRNA levels” value was “significantly stimulated” and the “aP2 mRNA levels” value is listed as “significantly stimulated”.
